Experiments:
[1] = system: LPS-induced NO production in RAW264.7 cells; experiment: Inhibition of LPS-induced NO production (Griess reagent); format: cell-based, mouse; settings: for IC50: Mus musculus, 1 h pretreatment, then LPS 24 h, mean ± SD (n = 3); for LPS-induced NO release: LPS-stimulated, result in words
Experimental: NO is an important inflammatory mediator and is overproduced and secreted out of mouse macrophages in response to bacterial lipopolysaccharide. To evaluate the anti-inflammatory activity of hesperetin derivatives, the secretion level of NO was detected in the medium of RAW264.7 cells after LPS stimulated with Griess reagent. Before the cells were treated with LPS (1 μg/mL) for 24 h, pretreatment with the compounds for 1 hour. […] All hesperetin derivatives could decrease the release of NO induced by LPS. […] While extended the length of the amide side chain and the inhibitory activities increased (4d > 4c > 4a; 4e > 4b). […] On the other hand, the cavity was medium-sized, large enough to accommodate cyclopentyl and propyl groups, but not enough to accommodate cyclohexyl and butyl ones (4a < 4b < 4d > 4f; 4k > 4l).
Nitrite levels were determined using the Griess method for NO has a short half-life and is oxidized to stable nitrite. RAW 264.7 cells were plated at a density of 2 × 10^5 per well in a 24-well culture plate and incubated in a 37 °C humidified incubator (5% CO2). After overnight Cultured, discarded the supernatant, added pre-configured compounds of different concentrations to the 24-well plate, and added the same one-thousandth of the DMSO solvent as the control to the experimental group for 1 h. Then LPS was added to experimental and model groups at a concentration of […] for 24 h compared to vehicle control. Following treatment, media was collected and centrifuged at 2000 rpm for 5 min to remove cellular debris. The medium from treated cells was removed and placed into a 96-well plate (50 µL per well) and was measured in culture supernatant using Griess reagent at 540 nm. The IC50 values of compounds were calculated by SPSS23.

[2] = system: LPS-induced NO production in RAW264.7 cells; experiment: as above; format: cell-based; settings: Mus musculus, 10 μM compound, 1 h pretreatment, then LPS (1 μg/mL) 24 h, mean ± SD (n = 3)

IC50 [1]	melting point	Compound	inhibition at 10 µM [2]	LPS-induced NO release [1]
26.4 ± 0.46 µM		Cc1ccc(-c2cc(C(F)(F)F)nn2-c2ccc(S(N)(=O)=O)cc2)cc1 [Cel, celecoxib, reference compound]	14.5 ± 3.61%	
38.5 ± 2 µM	179.8 to 182.7 °C	CNC(=O)COc1cc(O)c2c(c1)O[C@H](c1ccc(OC)c(O)c1)CC2=O [Compound 4a, 7-O-(2-(Methylamino)-2-oxoethyl)hesperetin]	16 ± 0.06%	
29.9 ± 3.4 µM	171.2 to 173.6 °C	CCNC(=O)COc1cc(O)c2c(c1)O[C@H](c1ccc(OC)c(O)c1)CC2=O [Compound 4b, 7-O-(2-(Ethylamino)-2-oxoethyl)hesperetin]	21.5 ± 1.29%	
32.5 ± 2.46 µM	164.1 to 165.8 °C	COc1ccc([C@@H]2CC(=O)c3c(O)cc(OCC(=O)N(C)C)cc3O2)cc1O [Compound 4c, 7-O-(2-(Dimethylamino)-2-oxoethyl)hesperetin]	13.5 ± 1.63%	
29.7 ± 3.06 µM	136.9 to 138.4 °C	CCCCNC(=O)COc1cc(O)c2c(c1)O[C@H](c1ccc(OC)c(O)c1)CC2=O [Compound 4f, 7-O-(2-(Butylamino)-2-oxoethyl)hesperetin]	18 ± 0.82%	
24.59 ± 0.22 µM	136.9 to 139.4 °C	COc1ccc([C@@H]2CC(=O)c3c(O)cc(OCC(=O)NCC(C)C)cc3O2)cc1O [Compound 4g, 7-O-(2-(Isobutylamino)-2-oxoethyl)hesperetin]	23.5 ± 0.74%	significantly alleviated the increase of LPS-induced NO release
42 ± 6.15 µM	140.5 to 142.4 °C	COc1ccc([C@@H]2CC(=O)c3c(O)cc(OCC(=O)NC(C)(C)C)cc3O2)cc1O [Compound 4h, 7-O-(2-(tert-Butylamino)-2-oxoethyl)hesperetin]	17.5 ± 1.33%	
30.5 ± 1.66 µM	146.3 to 147.8 °C	CCN(CC)C(=O)COc1cc(O)c2c(c1)O[C@H](c1ccc(OC)c(O)c1)CC2=O [Compound 4i, 7-O-(2-(Diethylamino)-2-oxoethyl)hesperetin]	17.5 ± 2.33%	
41.7 ± 2.79 µM	190.8 to 193.1 °C	COc1ccc([C@@H]2CC(=O)c3c(O)cc(OCC(=O)NC4CC4)cc3O2)cc1O [Compound 4j, 7-O-(2-(Cyclopropylamino)-2-oxoethyl)hesperetin]	9.57 ± 5.53%	
33.3 ± 3.3 µM	181.9 to 184.1 °C	COc1ccc([C@@H]2CC(=O)c3c(O)cc(OCC(=O)NC4CCCCC4)cc3O2)cc1O [Compound 4l, 7-O-(2-(Cyclohexylamino)-2-oxoethyl)hesperetin]	20.3 ± 2%	
36.2 ± 5.83 µM	127.1 to 130.5 °C	COc1ccc([C@@H]2CC(=O)c3c(O)cc(OCC(=O)N4CCCC4)cc3O2)cc1O [Compound 5a, 7-O-(2-(Pyrrolidin-1-yl)-2-oxoethyl)hesperetin]	18.9 ± 4.02%	
30 ± 0.43 µM	152.4 to 154.7 °C	COc1ccc([C@@H]2CC(=O)c3c(O)cc(OCC(=O)N4CCSC4)cc3O2)cc1O [Compound 5b, 7-O-(2-(Thiazolidin-3-yl)-2-oxoethyl)hesperetin]	22.7 ± 5.71%	
23.4 ± 1.64 µM	165.4 to 167.9 °C	COc1ccc([C@@H]2CC(=O)c3c(O)cc(OCC(=O)N4CCCCC4)cc3O2)cc1O [Compound 6a, 7-O-(2-(piperidin-1-yl)-2-oxoethyl)hesperetin]	30.2 ± 4.67%	significantly alleviated the increase of LPS-induced NO release
31.1 ± 2.93 µM	168.6 to 171.8 °C	COc1ccc([C@@H]2CC(=O)c3c(O)cc(OCC(=O)N4CCCC(CO)C4)cc3O2)cc1O (some centres unmarked) [Compound 6b, 7-O-(2-(3-(Hydroxymethyl)piperidin-1-yl)-2-oxoethyl)hesperetin]	19.3 ± 1.94%	
40.6 ± 5.56 µM	123.2 to 125.8 °C	COc1ccc([C@@H]2CC(=O)c3c(O)cc(OCC(=O)N4CCCCC4CO)cc3O2)cc1O (some centres unmarked) [Compound 6c, 7-O-(2-(2-(Hydroxymethyl)piperidin-1-yl)-2-oxoethyl)hesperetin]	9.1 ± 3.67%	
	167.3 to 170.1 °C	COc1ccc([C@@H]2CC(=O)c3c(O)cc(OCC(=O)N4CCN(C)CC4)cc3O2)cc1O [Compound 6d, 7-O-(2-(4-Methylpiperazin-1-yl)-2-oxoethyl)hesperetin]		
	160.7 to 162.9 °C	CCN1CCN(C(=O)COc2cc(O)c3c(c2)O[C@H](c2ccc(OC)c(O)c2)CC3=O)CC1 [Compound 6e, 7-O-(2-(4-Ethylpiperazin-1-yl)-2-oxoethyl)hesperetin]		
32.6 ± 1.51 µM	188.7 to 189.3 °C	COc1ccc([C@@H]2CC(=O)c3c(O)cc(OCC(=O)N4CCOCC4)cc3O2)cc1O [Compound 6f, 7-O-(2-Morpholino-2-oxoethyl)hesperetin]	21 ± 0.31%	
28.4 ± 5.33 µM	183.8 to 185.7 °C	COc1ccc([C@@H]2CC(=O)c3c(O)cc(OCC(=O)NCCO)cc3O2)cc1O [Compound 7a, 7-O-(2-((2-Hydroxyethyl)amino)-2-oxoethyl)hesperetin]	15 ± 1.99%	
92.5 ± 33.7 µM	137.1 to 139.4 °C	COc1ccc([C@@H]2CC(=O)c3c(O)cc(OCC(=O)NCCN(C)C)cc3O2)cc1O [Compound 7b, 7-O-(2-((2-(Dimethylamino)ethyl)amino)-2-oxoethyl)hesperetin]	12.4 ± 0.67%	
42.4 ± 2.06 µM	160.7 to 162.9 °C	COc1ccc([C@@H]2CC(=O)c3c(O)cc(OCC(=O)NCCN4CCOCC4)cc3O2)cc1O [Compound 7c, 7-O-(2-((2-Mmorpholinoethyl)amino)-2-oxoethyl) hesperetin]	18.4 ± 4.55%	
35.3 ± 8.07 µM		COc1ccc2c(c1)c(CC(=O)O)c(C)n2C(=O)c1ccc(Cl)cc1 [Ind, indomethacin, reference compound]	12.9 ± 3.09%	

From article PMC6832651, “Design, Synthesis and Investigation of the Potential Anti-Inflammatory Activity of 7-O-Amide Hesperetin Derivatives” (Molecules, 2019)
